Measured values taken from patent US9120756B2, “Substituted phenylureas and phenylamides as vanilloid receptor ligands” (Gruenenthal GmbH, priority 2009, dated 2015).

Tests used:
[1] = molecular target: rat-species vanilloid receptor 1 (VR1/TRPV1) (Rattus norvegicus (Rat), UniProt O35433); assay: FLIPR Ca2+ influx assay on rat dorsal root ganglia cells, capsaicin stimulus (method I); assay type: cell-based; conditions: capsaicin (Cap)
Experimental: The agonistic or antagonistic effect of the substances to be tested on the rat-species vanilloid receptor 1 (VR1/TRPV1) can be determined using the following assay. In this assay, the influx of Ca^2+ through the receptor channel is quantified with the aid of a Ca^2+-sensitive dye (type Fluo-4, Molecular Probes Europe BV, Leiden, the Netherlands) in a fluorescent imaging plate reader (FLIPR, Molecular Devices, Sunnyvale, USA).
Complete medium: 50 ml HAMS F12 nutrient mixture (Gibco Invitrogen GmbH, Karlsruhe, Germany) with
10% by volume of FCS (foetal calf serum, Gibco Invitrogen GmbH, Karlsruhe, Germany, heat-inactivated);
2 mM L-glutamine (Sigma, Munich, Germany);
1% by weight of AA solution (antibiotic/antimyotic solution, PAA, Pasching, Austria) and 25 ng/ml NGF medium (2.5 S, Gibco Invitrogen GmbH, Karlsruhe, Germany)
Cell culture plate: Poly-D-lysine-coated, black 96-well plates having a clear base (96-well black/clear plate, BD Biosciences, Heidelberg, Germany) are additionally coated with laminin (Gibco Invitrogen GmbH, Karlsruhe, Germany), the laminin being diluted with PBS (Ca—Mg-free PBS, Gibco Invitrogen GmbH, Karlsruhe, Germany) to a concentration of 100 μg/ml. Aliquots having a laminin concentration of 100 μg/ml are removed and stored at −20° C. The aliquots are diluted with PBS in a ratio of 1:10 to 10 μg/ml of laminin and respectively 50 μL of the solution are pipetted into a recess in the cell culture plate. The cell culture plates are incubated for at least two hours at 37° C., the excess solution is removed by suction and the recesses are each washed twice with PBS. The coated cell culture plates are stored with excess PBS which is not removed until just before the feeding of the cells.
The vertebral column is removed from decapitated rats and placed immediately into cold HBSS buffer (Hank's buffered saline solution, Gibco Invitrogen GmbH, Karlsruhe, Germany), i.e. buffer located in an ice bath, mixed with 1% by volume (percent by volume) of an AA solution (antibiotic/antimyotic solution, PAA, Pasching, Austria). The vertebral column is cut longitudinally and removed together with fasciae from the vertebral canal. Subsequently, the dorsal root ganglia (DRG) are removed and again stored in cold HBSS buffer mixed with 1% by volume of an AA solution. The DRG, from which all blood remnants and spinal nerves have been removed, are transferred in each case to 500 μL of cold type 2 collagenase (PAA, Pasching, Austria) and incubated for 35 minutes at 37° C. After the addition of 2.5% by volume of trypsin (PAA, Pasching, Austria), incubation is continued for 10 minutes at 37° C. After complete incubation, the enzyme solution is carefully pipetted off and 500 μL of complete medium are added to each of the remaining DRG. […] The contents of each Falcon tube are respectively filtered through a 70 μm Falcon filter element and centrifuged for 10 minutes at 1,200 rpm and RT. The resulting pellet is respectively taken up in 250 μL of complete medium and the cell count is determined.
The number of cells in the suspension is set to 3×10^5 per ml and 150 μL of this suspension are in each case introduced into a recess in the cell culture plates coated as described hereinbefore. […] Subsequently, the cells are loaded with 2 μM of Fluo-4 and 0.01% by volume of Pluronic F127 (Molecular Probes Europe BV, Leiden, the Netherlands) in HBSS buffer (Hank's buffered saline solution, Gibco Invitrogen GmbH, Karlsruhe, Germany) for 30 min at 37° C., washed 3 times with HBSS buffer and after further incubation for 15 minutes at RT used for Ca^2+ measurement in a FLIPR assay. The Ca^2+-dependent fluorescence is in this case measured before and after the addition of substances (λex=488 nm, λem=540 nm). Quantification is carried out by measuring the highest fluorescence intensity (FC, fluorescence counts) over time.
The FLIPR protocol consists of 2 substance additions.

[2] = molecular target: hVR1 (Homo sapiens (Human), UniProt Q8NER1); assay: FLIPR Ca2+ influx assay on CHO K1 cells transfected with the VR1 gene, capsaicin stimulus (method II); assay type: cell-based; conditions: capsaicin (Cap), read-out: Ki (human being) [nM] Cap
Chain of hVR1 (Q8NER1 whole entry): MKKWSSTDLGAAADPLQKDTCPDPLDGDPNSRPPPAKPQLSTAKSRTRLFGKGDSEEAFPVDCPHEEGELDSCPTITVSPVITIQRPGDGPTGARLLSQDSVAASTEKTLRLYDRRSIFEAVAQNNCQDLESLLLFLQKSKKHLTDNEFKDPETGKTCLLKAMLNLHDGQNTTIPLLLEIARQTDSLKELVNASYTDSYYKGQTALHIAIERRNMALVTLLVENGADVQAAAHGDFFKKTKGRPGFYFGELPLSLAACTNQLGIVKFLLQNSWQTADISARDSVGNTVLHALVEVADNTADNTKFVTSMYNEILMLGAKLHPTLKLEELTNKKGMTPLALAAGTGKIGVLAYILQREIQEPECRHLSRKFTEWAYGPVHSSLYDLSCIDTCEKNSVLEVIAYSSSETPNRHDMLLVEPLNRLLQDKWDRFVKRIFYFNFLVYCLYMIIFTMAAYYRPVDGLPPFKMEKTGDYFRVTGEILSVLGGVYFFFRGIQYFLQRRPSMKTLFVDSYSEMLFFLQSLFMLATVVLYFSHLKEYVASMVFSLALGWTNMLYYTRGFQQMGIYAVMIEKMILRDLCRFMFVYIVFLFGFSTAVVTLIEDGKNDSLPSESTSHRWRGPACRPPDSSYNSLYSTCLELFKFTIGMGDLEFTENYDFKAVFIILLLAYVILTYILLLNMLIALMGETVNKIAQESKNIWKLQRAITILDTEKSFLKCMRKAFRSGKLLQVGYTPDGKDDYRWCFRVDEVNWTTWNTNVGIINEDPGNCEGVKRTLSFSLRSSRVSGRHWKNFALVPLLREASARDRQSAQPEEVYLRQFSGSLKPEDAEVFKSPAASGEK

Chain of rat-species vanilloid receptor 1 (VR1/TRPV1) (O35433 whole entry): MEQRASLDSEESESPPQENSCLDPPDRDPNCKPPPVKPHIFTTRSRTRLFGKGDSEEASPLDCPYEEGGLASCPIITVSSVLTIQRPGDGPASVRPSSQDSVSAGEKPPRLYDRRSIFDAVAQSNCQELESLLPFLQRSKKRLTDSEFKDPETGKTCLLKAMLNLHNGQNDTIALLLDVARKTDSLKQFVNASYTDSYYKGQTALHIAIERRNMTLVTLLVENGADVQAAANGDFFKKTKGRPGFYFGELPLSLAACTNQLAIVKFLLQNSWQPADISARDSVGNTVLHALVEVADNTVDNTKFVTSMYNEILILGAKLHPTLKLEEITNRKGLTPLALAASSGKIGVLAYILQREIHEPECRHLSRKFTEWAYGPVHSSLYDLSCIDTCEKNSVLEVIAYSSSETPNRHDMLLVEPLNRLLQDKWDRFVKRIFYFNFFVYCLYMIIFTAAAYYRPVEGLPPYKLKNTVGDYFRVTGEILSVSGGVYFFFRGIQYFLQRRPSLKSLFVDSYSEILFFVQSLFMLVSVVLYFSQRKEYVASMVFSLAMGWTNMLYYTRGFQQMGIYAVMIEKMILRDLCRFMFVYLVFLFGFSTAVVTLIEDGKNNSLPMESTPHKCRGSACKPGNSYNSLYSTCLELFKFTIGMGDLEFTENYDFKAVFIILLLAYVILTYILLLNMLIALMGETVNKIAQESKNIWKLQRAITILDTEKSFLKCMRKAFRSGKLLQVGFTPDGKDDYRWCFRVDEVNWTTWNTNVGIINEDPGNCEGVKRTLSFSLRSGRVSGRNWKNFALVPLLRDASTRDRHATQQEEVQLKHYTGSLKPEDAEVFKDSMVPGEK

**Q.** How did the Ki [1] turn out when `O=C(Cc1cccc(F)c1)NCc1cc(C(F)(F)F)nn1-c1cccc(Cl)c1` [Example 74, N-((1-(3-chlorophenyl)-3-(trifluoromethyl)-1H-pyrazol-5-yl)methyl)-2-(3-fluorophenyl)acetamide] was run?
**A.** The Ki was 85 nM.

**Q.** And the Ki [2]?
**A.** The Ki was 51.8 nM.
